Results reported in patent US20240166624A1, “PPARG INVERSE AGONISTS AND USES THEREOF” (Flare Therapeutics Inc., priority 2021, published 2024).

What was measured:
[1] = tested on: ANGPTL4, a PPARG target gene, in HT1197 (RXRA S427F mutation) cells; assay: Bladder cancer pharmacodynamic assay, HT1197 cell assay (qPCR of ANGPTL4); type: cell-based; conditions: Homo sapiens, 24 hours, 100 nM compound, relative to DMSO control
Summary of the method: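 5637 (PPARG amplified) and HT1197 (RXRA S427F) cells treated 24 h with PPARG inverse agonists. FABP4 and ANGPTL4 expression measured by qPCR, normalised to TBP, and reported relative to DMSO control by ΔΔCt.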

[2] = molecular target: T1, PPARG/RXRA LBD heterodimer (Homo sapiens, UniProt P37231); assay: PPARγ-MED1 blockade assay (TR-FRET, biotinylated MED1 LxxLL peptide); type: biochemical; conditions: WT PPARG LBD/WT RXRA LBD, 80 nM Rosiglitazone, 3 hours
T1 construct: His-TEV-Q203-Y477; Uniprot ID P37231-2; made in house; host or cells: E. coli
T1 sequence (P37231 203-477 isoform P37231-2): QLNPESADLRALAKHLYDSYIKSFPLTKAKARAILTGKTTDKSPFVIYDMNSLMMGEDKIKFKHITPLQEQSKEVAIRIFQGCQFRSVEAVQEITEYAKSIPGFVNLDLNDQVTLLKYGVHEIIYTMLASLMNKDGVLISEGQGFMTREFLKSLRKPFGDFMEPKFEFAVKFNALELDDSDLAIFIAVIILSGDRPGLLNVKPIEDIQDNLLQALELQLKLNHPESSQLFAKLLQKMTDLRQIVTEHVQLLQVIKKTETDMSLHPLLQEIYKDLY
T1 sequence (P19793 228-462 partner limits assumed): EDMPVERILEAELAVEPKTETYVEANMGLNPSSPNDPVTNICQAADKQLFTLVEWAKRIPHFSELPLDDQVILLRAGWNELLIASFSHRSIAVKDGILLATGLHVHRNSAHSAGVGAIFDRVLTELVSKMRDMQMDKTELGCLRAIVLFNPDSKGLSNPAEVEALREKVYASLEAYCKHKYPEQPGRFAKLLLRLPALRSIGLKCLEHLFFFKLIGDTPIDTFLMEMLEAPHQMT
Summary of the method: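 TR-FRET measuring biotinylated MED1 LxxLL peptide association with 2 nM each His-PPARG LBD (Q203-Y477) and Flag-RXRA LBD (E228-T462), E. coli expressed. Read after 3 h incubation; ratios normalized to DMSO (0%) and GW9662 minimum (100%) for IC50 and maximal MED1 repulsion.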

[3] = molecular target: T2, PPARG/RXRA LBD heterodimer (Homo sapiens, UniProt P37231); assay: PPARγ-NCOR1 recruitment assay (TR-FRET, biotinylated NCOR1 ID2 peptide); type: biochemical; conditions: 80 nM Rosiglitazone, 3 hours, read-out: PPARG-NCOR recruitment assay EC50
T2 construct: His-TEV-Q203-Y477; Uniprot ID P37231-2; made in house; host or cells: E. coli
Summary of the method: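 2 nM each of E. coli-expressed PPARG LBD (Q203-Y477) and RXRA LBD (WT or S427F, E228-T462) with biotinylated NCOR1 ID2 peptide, incubated 3 h; TR-FRET read at Ex/Em 615/665. Ratios normalized to DMSO (0%) and T0070907 maximum (100%) for EC50 and maximal recruitment.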
T2 sequence (O75376 2251-2273 partner, one chain of several): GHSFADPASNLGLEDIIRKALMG

| SMILES | EC50 [2] [nM] | EC50 [3] [nM] | inhibition at 0.1 µM [1] [%] |
| --- | --- | --- | --- |
| CN1CCN(c2c(F)cc3[nH]c(-c4cc(C#N)ccc4Cl)cc(=O)c3c2F)CC1 [Example 19, 4-chloro-3-(5,7-difluoro-6-(4-methylpiperazin-1-yl)-4-oxo-1,4-dihydroquinolin-2-yl)benzonitrile] | 1000 to 10000 | 1000 to 10000 | 75 |
| CN(C)C(=O)[C@H]1CCCN(c2c(F)cc3[nH]c(-c4cc(C#N)ccc4Cl)cc(=O)c3c2F)C1 [Example 115, (S)-1-(2-(2-chloro-5-cyanophenyl)-5,7-difluoro-4-oxo-1,4-dihydroquinolin-6-yl)-N,N-dimethylpiperidine-3-carboxamide] | 1000 to 10000 | 100 to 1000 | 80 |
| N#Cc1ccc(Cl)c(-c2cc(=O)c3c(F)c(N4CC5(COC5)C4)c(F)cc3[nH]2)c1 [Example 98, 4-chloro-3-(5,7-difluoro-4-oxo-6-(2-oxa-6-azaspiro[3.3]heptan-6-yl)-14-dihydroquinolin-2-yl)benzonitrile] | 1000 to 10000 | 100 to 1000 | 87 |
| CN1CC2(C1)CN(c1c(F)cc3[nH]c(-c4cc(C#N)ccc4Cl)cc(=O)c3c1F)C2 [Example 99, 4-chloro-3-(5,7-difluoro-6-(6-methyl-2,6-diazaspiro[3.3]heptan-2-yl)-4-oxo-1,4-dihydroquinolin-2-yl)benzonitrile] | > 10000 | > 10000 | 59 |
| CN(C)C(=O)N1CCN(c2c(F)cc3[nH]c(-c4cc(C#N)ccc4Cl)cc(=O)c3c2F)CC1 [Example 113, 4-(2-(2-chloro-5-cyanophenyl)-5,7-difluoro-4-oxo-1,4-dihydroquinolin-6-yl)-N,N-dimethylpiperazine-1-carboxamide] | 1000 to 10000 | 1000 to 10000 | 80 |
| CC(=O)N1CCN(c2c(F)cc3[nH]c(-c4cc(C#N)ccc4Cl)cc(=O)c3c2F)CC1 [Example 96, 3-(6-(4-acetylpiperazin-1-yl)-5,7-difluoro-4-oxo-1,4-dihydroquinolin-2-yl)-4-chlorobenzonitrile] | 1000 to 10000 | 1000 to 10000 | 82 |
| N#Cc1ccc(Cl)c(-c2cc(=O)c3c(F)c(N4CCCC4=O)c(F)cc3[nH]2)c1 [Example 27, 4-chloro-3-(5,7-difluoro-4-oxo-6-(2-oxopyrrolidin-1-yl)-1,4-dihydroquinolin-2-yl)benzonitrile] | 1000 to 10000 | 1000 to 10000 | 47 |
| Cc1cc(-c2c(F)cc3[nH]c(-c4cc(C#N)ccc4Cl)cc(=O)c3c2F)ccn1 [Example 40, 4-chloro-3-(5,7-difluoro-6-(2-methylpyridin-4-yl)-4-oxo-1,4-dihydroquinolin-2-yl)benzonitrile] | 100 to 1000 | 100 to 1000 | 72 |
| CC(=O)N1CCC(c2c(F)cc3[nH]c(-c4cc(C#N)ccc4Cl)cc(=O)c3c2F)CC1 [Example 95, 3-(6-(1-acetylpiperidin-4-yl)-5,7-difluoro-4-oxo-1,4-dihydroquinolin-2-yl)-4-chlorobenzonitrile] | 100 to 1000 | 100 to 1000 | 87 |
| COc1cc(F)c2c(=O)cc(-c3cc(C#N)ccc3Cl)[nH]c2c1 [Example 22, 4-chloro-3-(5-fluoro-7-methoxy-4-oxo-1,4-dihydroquinolin-2-yl)benzonitrile] | 100 to 1000 | 100 to 1000 | 29 |

Continued, in another order:

| EC50 [2] [nM] | EC50 [3] [nM] | SMILES | inhibition at 0.1 µM [1] [%] |
| --- | --- | --- | --- |
| 100 to 1000 | 100 to 1000 | CN(C)C(=O)c1c(F)ccc(-c2c(F)cc3[nH]c(-c4cc(C#N)ccc4Cl)cc(=O)c3c2F)c1F [Example 83, 3-(2-(2-chloro-5-cyanophenyl)-5,7-difluoro-4-oxo-1,4-dihydroquinolin-6-yl)-2,6-difluoro-N,N-dimethylbenzamide] | 76 |
| 10 to 100 | 10 to 100 | N#Cc1ccc(Cl)c(-c2cc(=O)c3c(F)c(-c4ccc5c(c4)C(=O)NC5)c(F)cc3[nH]2)c1 [Example 59, 4-chloro-3-(5,7-difluoro-4-oxo-6-(3-oxoisoindolin-5-yl)-1,4-dihydroquinolin-2-yl)benzonitrile] | 42 |
| 100 to 1000 | 100 to 1000 | N#Cc1ccc(Cl)c(-c2cc(=O)c3c(F)c(N4CCOCC4)c(F)cc3[nH]2)c1 [Example 107, 4-chloro-3-(5,7-difluoro-6-morpholino-4-oxo-1,4-dihydroquinolin-2-yl)benzonitrile] | 80 |
| 100 to 1000 | 100 to 1000 | N#Cc1ccc(Cl)c(-c2cc(=O)c3ccc(Cl)cc3[nH]2)c1 [Example 31, 4-chloro-3-(7-chloro-4-oxo-1,4-dihydroquinolin-2-yl)benzonitrile] | 90 |
| 100 to 1000 | 100 to 1000 | Cc1ccc(-c2c(F)cc3[nH]c(-c4cc(C#N)ccc4Cl)cc(=O)c3c2F)cn1 [Example 46, 4-chloro-3-(5,7-difluoro-6-(6-methylpyridin-3-yl)-4-oxo-1,4-dihydroquinolin-2-yl)benzonitrile] | 80 |
| 100 to 1000 | 100 to 1000 | N#Cc1ccc(Cl)c(-c2cc(=O)c3c(F)c(-c4ccc(C(F)(F)F)cn4)c(F)cc3[nH]2)c1 [Example 55, 4-chloro-3-(5,7-difluoro-4-oxo-6-(5-(trifluoromethyl)pyridin-2-yl)-1,4-dihydroquinolin-2-yl)benzonitrile] | 65 |
| 100 to 1000 | 100 to 1000 | N#Cc1ccc(Cl)c(-c2cc(=O)c3c(F)c(-c4cnn(C(F)F)c4)c(F)cc3[nH]2)c1 [Example 38, 4-chloro-3-(6-(1-(difluoromethyl)-1H-pyrazol-4-yl)-5,7-difluoro-4-oxo-1,4-dihydroquinolin-2-yl)benzonitrile] | 80 |
| 100 to 1000 | 100 to 1000 | Cn1cc(-c2c(F)cc3[nH]c(-c4cc(C#N)ccc4Cl)cc(=O)c3c2F)cn1 [Example 44, 4-chloro-3-(5,7-difluoro-6-(1-methyl-1H-pyrazol-4-yl)-4-oxo-1,4-dihydroquinolin-2-yl)benzonitrile] | 75 |
| < 10 | < 10 | O=c1cc(-c2cc([N+](=O)[O-])ccc2Cl)[nH]c2ccccc12 [Example 14, 2-(2-chloro-5-nitrophenyl)quinolin-4(1H)-one] | 38 |
| 100 to 1000 | 100 to 1000 | CN(C)C(=O)c1cc(-c2c(F)cc3[nH]c(-c4cc(C#N)ccc4Cl)cc(=O)c3c2F)c(F)cc1F [Example 87, 5-(2-(2-chloro-5-cyanophenyl)-5,7-difluoro-4-oxo-1,4-dihydroquinolin-6-yl)-2,4-difluoro-N,N-dimethylbenzamide] | 75 |
| 100 to 1000 | 10 to 100 | N#Cc1cccc(-c2c(F)cc3[nH]c(-c4cc(C#N)ccc4Cl)cc(=O)c3c2F)c1 [Example 41, 4-chloro-3-(6-(3-cyanophenyl)-5,7-difluoro-4-oxo-1,4-dihydroquinolin-2-yl)benzonitrile] | 72 |
| 10 to 100 | 10 to 100 | N#Cc1ccc(Cl)c(-c2cc(=O)c3c(F)c(-c4ccc(C(F)F)nc4)c(F)cc3[nH]2)c1 [Example 73, 4-chloro-3-(6-(6-(difluoromethyl)pyridin-3-yl)-5,7-difluoro-4-oxo-1,4-dihydroquinolin-2-yl)benzonitrile] | 85 |
